Assay [1] deals with T1, phenylalanine decarboxylase from Streptococcus faecallis (Enterococcus faecalis, UniProt Q838D6).
T1 construct: L-phenylalanine substrate, phenylethylamine by GC
T1 sequence (Q838D6 1-620): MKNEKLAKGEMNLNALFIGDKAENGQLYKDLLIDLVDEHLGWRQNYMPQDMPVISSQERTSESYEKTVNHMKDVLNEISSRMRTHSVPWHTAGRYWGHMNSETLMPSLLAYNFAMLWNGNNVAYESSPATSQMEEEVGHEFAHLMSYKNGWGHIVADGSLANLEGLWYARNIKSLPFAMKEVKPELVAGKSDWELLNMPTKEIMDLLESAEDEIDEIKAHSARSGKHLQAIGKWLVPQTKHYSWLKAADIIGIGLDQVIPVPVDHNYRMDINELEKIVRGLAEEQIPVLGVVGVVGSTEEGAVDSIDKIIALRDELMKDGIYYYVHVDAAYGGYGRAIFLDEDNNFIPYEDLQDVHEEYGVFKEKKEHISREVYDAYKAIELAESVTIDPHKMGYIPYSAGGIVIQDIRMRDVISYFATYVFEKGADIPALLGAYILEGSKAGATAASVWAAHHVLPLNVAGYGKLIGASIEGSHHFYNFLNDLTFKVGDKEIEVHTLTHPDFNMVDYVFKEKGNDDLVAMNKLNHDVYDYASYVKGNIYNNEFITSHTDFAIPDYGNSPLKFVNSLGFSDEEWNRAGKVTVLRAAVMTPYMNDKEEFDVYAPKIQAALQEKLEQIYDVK
Put plainly: Time dependent inactivation of phenylalanine decarboxylase. Type of assay: biochemical. The settings on record: Streptococcus faecallis enzyme. An excerpt:
(§1) Mammalian DOPA decarboxylase was isolated and purified from porcine kidney by the procedure of Borri-Voltatorni et al [Eur. J. Biochem., 93, 181 (1979)] with modifications as introduced by Rudd and Thanassi [Biochemistry, 20, 7469 (1981)]. Bacterial L-phenylalanine and L-tyrosine decarboxylases ex Streptococcus faecallis were purchased from Sigma Chemical Co. as crude extracts and studied without further purification.
(§2) The time dependent inactivation of bacterial aromatic amino acid decarboxylases with 200-1000 micromolar inhibitor, e.g. 2-amino-2-(4-hydroxybenzyl)-penta-3,4-dienoic acid or 2-amino-2-benzylpenta-3,4-dienoic acid, was monitored at pH 5.5 and 37° C. Residual activity of tyrosine decarboxylase ex Streptococcus faecallis was determined by measurement of p-tyramine production at pH 5.5 and 37° C. p-Tyramine was separated by HPLC and quantified by electrochemical oxidation at +0.7 volts.
Residual activity of L-phenylalanine decarboxylase ex Streptococcus faecallis with L-phenylalanine (2 mM) as substrate was meaasured by gas chromatographic analysis of phenylethylamine production. Direct injection of enzymatic reaction mixture (1-5 microliters) onto a standard glass column packed with 10% Apiezon L on Chromosorb 80/100 deactivated with 2% KOH allowed separation of aromatic amine from the reaction mixture. FID detection quantified the rate of product formation.

Assay [2] has as its target T2, mammalian DOPA decarboxylase from porcine kidney (Sus scrofa, UniProt P80041).
T2 construct: isolated and purified from porcine kidney; from tissue; host or cells: porcine kidney
T2 sequence (P80041 1-486): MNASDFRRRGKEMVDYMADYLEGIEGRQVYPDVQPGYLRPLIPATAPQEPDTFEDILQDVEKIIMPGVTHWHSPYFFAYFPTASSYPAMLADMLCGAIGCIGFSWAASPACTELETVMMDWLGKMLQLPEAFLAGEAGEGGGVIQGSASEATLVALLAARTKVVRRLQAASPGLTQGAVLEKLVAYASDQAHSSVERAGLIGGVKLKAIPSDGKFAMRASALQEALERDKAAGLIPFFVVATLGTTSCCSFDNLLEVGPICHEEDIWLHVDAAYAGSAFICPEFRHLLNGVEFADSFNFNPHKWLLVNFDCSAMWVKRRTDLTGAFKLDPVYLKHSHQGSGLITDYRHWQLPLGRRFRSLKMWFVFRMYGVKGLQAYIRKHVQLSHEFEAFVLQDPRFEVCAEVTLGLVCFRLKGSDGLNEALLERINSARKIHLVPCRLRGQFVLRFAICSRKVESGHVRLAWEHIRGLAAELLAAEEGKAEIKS
In words: Time dependent inactivation of DOPA decarboxylase. It counts as biochemical. The note with it: porcine kidney enzyme.
From the text: as §1
Time dependent inactivation of mammalian DOPA decarboxylase was monitored by incubation of enzyme with 4 to 100 molar equivalent excess of 2-amino-2-(3,4-dihydroxybenzyl)penta-3,4-dienoic acid at pH 6.8 and 37° C. At appropriate time intervals, aliquots of the mixture were withdrawn, diluted 30-fold into excess L-DOPA (2 mM) and residual DOPA decarboxylase activity determined.
DOPA decarboxylase activity was routinely measured by liquid chromatography and electrochemical detection of catecholamine products. DOPA decarboxylase (1-5 micrograms, 1-20 units) was incubated with L-DOPA (2000 micromolar, 150 microliters) and PLP (10 micromolar) in 0.1M phosphate at pH 6.8 and 37° C. After 1-10 minutes, the reaction was quenched with citric acid (2M, 25 microliters), diluted two-fold with distilled water and 10 microliter aliquots were analyzed by HPLC on a reverse phase Brownlee RP-18 column. Isocratic elution with pH 4.35 buffer [0.1M NaOAc ([…]), 0.1M citric acid (32% v/v) and methanol (15% v/v)] at a flow rate of 2.5 ml/min. afforded baseline resolution of dopamine (RT=2.8 min.) from L-DOPA (RT=1.9 min.).
Quantification of dopamine was accomplished by preoxidation of the catechol to the ortho quinone at +0.25 volts in the first analytical electrochemical cell, followed by the selective reduction of ortho quinone in the second analytical cell set at -0.25 volts. This configuration for the ESA electrochemical detector allowed highly sensitive and selective detection of catecholamines (less than 10 picomoles/injection).

The target in assay [3] is T3, bacterial tyrosine decarboxylase from Streptococcus faecallis (Enterococcus faecalis, UniProt Q838D6).
T3 construct: purchased from Sigma Chemical Co. as crude extracts; purchased Sigma Chemical Co; host or cells: Streptococcus faecalis, crude extract
T3 sequence (Q838D6 1-620): T1 sequence (Q838D6 1-620)
Put plainly: Time dependent inactivation of tyrosine decarboxylase. It counts as biochemical. The note with it: Streptococcus faecallis enzyme.
From the text: as §1, §2

For assay [4], the target named is T4, aromatic amino acid decarboxylase (Sus scrofa, UniProt P80041).
T4 sequence (P80041 1-486): T2 sequence (P80041 1-486)
The settings on record: Maycock et al; cited from earlier work.

Assay [5] concerns Male Sim:(S.D.)fBR rats. Put plainly: In vivo potentiation of L-DOPA induced behaviors. On the set-up: species or system rat. The note with it: for Mean Behavior Score at 60 min.: score scale 0-6, before 200 mg/kg L-DOPA i.p. As to the method: Male Sim:(S.D.)fBR rats weighing 180-335 g were used for these experiments. Groups of 5 rats were individually housed and received water, or various doses of either 2-amino-2-(3-hydroxybenzyl)penta-3,4-dienoic acid or 2-amino-2-(3,4-dihydroxybenzyl)penta-3,4-dienoic acid 30 l minutes before 200 mg/kg of L-DOPA, i.p. Beginning 15 minutes later, behavioral observations were made at 15 minutes intervals for 2 hours. Behavoir was scored as follows:
3=Alert with intermittent sniffing

The subject of assay [6] is rat brain glutamate decarboxylase. The settings on record: Crystal et al 1977; cited from earlier work.
The target of assay [7] is T5, rat prostate ornithine decarboxylase (Rattus norvegicus, UniProt P09057).
T5 construct: host or cells: rat prostate
T5 sequence (P09057 1-461): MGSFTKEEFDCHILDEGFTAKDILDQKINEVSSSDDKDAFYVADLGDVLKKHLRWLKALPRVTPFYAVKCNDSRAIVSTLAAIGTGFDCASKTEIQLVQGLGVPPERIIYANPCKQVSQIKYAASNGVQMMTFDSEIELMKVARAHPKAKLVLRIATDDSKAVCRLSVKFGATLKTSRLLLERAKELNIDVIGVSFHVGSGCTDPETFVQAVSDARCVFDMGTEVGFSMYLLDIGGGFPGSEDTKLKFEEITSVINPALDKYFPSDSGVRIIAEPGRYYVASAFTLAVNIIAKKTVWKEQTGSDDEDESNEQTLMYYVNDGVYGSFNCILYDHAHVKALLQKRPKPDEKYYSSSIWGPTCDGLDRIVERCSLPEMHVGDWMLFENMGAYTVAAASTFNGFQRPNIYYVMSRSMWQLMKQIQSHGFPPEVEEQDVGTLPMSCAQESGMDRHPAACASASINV
The settings on record: Metcalf et al 1979; cited from earlier work.

Assay [8] deals with T6, rat liver ornithine decarboxylase (Rattus norvegicus, UniProt P09057).
T6 construct: host or cells: rat liver
T6 sequence (P09057 1-461): T5 sequence (P09057 1-461)
The note with it: Metcalf et al 1979; cited from earlier work.

Assay [9] concerns mammalian glutamate decarboxylase. The note with it: Jung et al 1978; cited from earlier work.
Assay [10] addresses bacterial glutamate decarboxylase (Escherichia coli, UniProt P69910). The note with it: Jung et al 1978; cited from earlier work.
Assay [11] concerns the target T7, ornithine decarboxylase (Homo sapiens, UniProt P11926).
T7 sequence (P11926 1-461): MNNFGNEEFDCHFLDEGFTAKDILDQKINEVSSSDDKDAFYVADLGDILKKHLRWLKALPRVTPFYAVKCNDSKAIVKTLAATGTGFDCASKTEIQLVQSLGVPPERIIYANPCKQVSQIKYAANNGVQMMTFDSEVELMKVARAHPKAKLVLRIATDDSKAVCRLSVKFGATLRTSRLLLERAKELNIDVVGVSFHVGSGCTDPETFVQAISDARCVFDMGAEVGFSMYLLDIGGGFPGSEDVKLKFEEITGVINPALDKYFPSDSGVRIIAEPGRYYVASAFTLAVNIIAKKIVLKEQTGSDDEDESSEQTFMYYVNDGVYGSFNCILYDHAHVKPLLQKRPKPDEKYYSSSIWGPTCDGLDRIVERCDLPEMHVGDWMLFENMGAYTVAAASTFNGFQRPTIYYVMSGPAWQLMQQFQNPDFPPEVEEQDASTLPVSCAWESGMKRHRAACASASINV
The settings on record: Relyea and Rando 1975; cited from earlier work.

Sequence of bacterial glutamate decarboxylase (P69910 whole entry): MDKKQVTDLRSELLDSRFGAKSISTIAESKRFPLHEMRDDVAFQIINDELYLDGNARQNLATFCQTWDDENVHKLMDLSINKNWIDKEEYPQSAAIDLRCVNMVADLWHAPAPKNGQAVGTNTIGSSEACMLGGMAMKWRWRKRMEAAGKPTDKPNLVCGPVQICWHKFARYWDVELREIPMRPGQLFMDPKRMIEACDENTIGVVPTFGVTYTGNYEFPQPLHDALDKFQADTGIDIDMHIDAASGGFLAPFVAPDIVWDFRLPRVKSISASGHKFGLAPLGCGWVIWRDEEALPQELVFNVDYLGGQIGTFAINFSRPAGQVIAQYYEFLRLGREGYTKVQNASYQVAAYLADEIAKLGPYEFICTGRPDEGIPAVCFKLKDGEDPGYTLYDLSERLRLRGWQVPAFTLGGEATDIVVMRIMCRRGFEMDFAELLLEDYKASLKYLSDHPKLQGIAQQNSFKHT

Regarding `C=C=CC(N)(Cc1ccc(O)cc1)C(=O)O` (centres unmarked) [2-amino-2-(4-hydroxybenzyl)penta-3,4-dienoic acid], in [1], the “irreversible inactivation of phenylalanine decarboxylase” value is reported as “irreversible inactivators”. For the same compound, the “irreversible inactivation of DOPA decarboxylase” value in [2] is “irreversible inactivators”. Besides, the “irreversible inactivation of tyrosine decarboxylase” value in assay [3] is reported as “irreversible inactivators”.

With `C=CC(N)Cc1ccc(O)c(O)c1` (stereo not drawn) [α-vinyl-dopamine], in [4], the “inactivation of aromatic amino acid decarboxylase” value was “slow-time dependent inactivation”.

As to `C=C=CC(N)(Cc1ccc(O)c(O)c1)C(=O)O` (centres unmarked) [2-amino-2-(3,4-dihydroxybenzyl)penta-3,4-dienoic acid], in assay [1], the “irreversible inactivation of phenylalanine decarboxylase” value was “irreversible inactivators”. For the same compound, the “potentiation of the behaviors induced by L-DOPA” value in assay [5] (30 mg/kg i.p. or s.c., 30 minutes before 200 mg/kg L-DOPA i.p.) was “active”. In addition, the “Mean Behavior Score at 60 min.” value in assay [5] (30 mg/kg i.p.) and in [5] (30 mg/kg s.c.) was 4.0 each time. Further, in assay [5] (3 to 30 mg/kg i.p. or 30 to 150 mg/kg s.c.), the “potentiation of DOPA behaviors” value is reported as “potentiate DOPA behaviors”. Further, in assay [2], the “irreversible inactivation of DOPA decarboxylase” value is “irreversible inactivators”. For the same compound, the “irreversible inactivation of tyrosine decarboxylase” value in [3] is “irreversible inactivators”.

For `CC=C=CC(N)(Cc1cccc(O)c1)C(=O)O` (centres unmarked) [2-amino-2-(3-hydroxybenzyl)hexa-3,4-dienoic acid], the “irreversible inactivation of phenylalanine decarboxylase” value in [1] is on record as “irreversible inactivators”. Further, the “irreversible inactivation of DOPA decarboxylase” value in [2] is “irreversible inactivators”. Also, in [3], the “irreversible inactivation of tyrosine decarboxylase” value was “irreversible inactivators”.

As for `CC=C=CC(N)(Cc1ccccc1)C(=O)O` (centres unmarked) [2-amino-2-benzylhexa-3,4-dienoic acid], the “irreversible inactivation of phenylalanine decarboxylase” value in assay [1] is listed as “irreversible inactivators”. Also, the “irreversible inactivation of DOPA decarboxylase” value in assay [2] is “irreversible inactivators”. Also, in assay [3], the “irreversible inactivation of tyrosine decarboxylase” value is given as “irreversible inactivators”.

Regarding `CC(N)(/C=C/C(=O)O)C(=O)O` (stereo not drawn) [α-methyl-trans-dehydroglutamic acid], the “inhibition of glutamate decarboxylase” value in assay [6] is recorded as “irreversibly inhibits”.

For `C=C=CC(N)(Cc1ccccc1)C(=O)O` (centres unmarked) [2-amino-2-benzylpenta-3,4-dienoic acid], the “irreversible inactivation of phenylalanine decarboxylase” value in assay [1] is given as “irreversible inactivators”. Besides, the “irreversible inactivation of DOPA decarboxylase” value in [2] is “irreversible inactivators”. In addition, the “irreversible inactivation of tyrosine decarboxylase” value in [3] was “irreversible inactivators”.

Consider `C#CC(N)CCCN` (single isomer, unassigned; (-)) [(-)-5-hexyne-1,4-diamine], for which the “inhibition of ornithine decarboxylase” value in assay [7] and in [8] was “potent time-dependent inhibitor” in each case.

Regarding `C#C[C@H](N)CCC(=O)O` [(R) 4-amino-hex-5-ynoic acid], the “inhibition of glutamate decarboxylase” value in assay [9] and in [10] was “inhibit” throughout.

As to `NCC=CC(N)C(=O)O` (stereo not drawn) [β, γ-dehydroornithine], the “inhibition of ornithine decarboxylase” value in assay [11] is reported as “very potent competitive inhibitor”.
